The values that follow come from US12180518B2, “RNA polymerase variants for co-transcriptional capping” (priority 2019, dated 2024).

What all share (format): biochemical, bacteriophage T7
Assay [1] addresses T7 RNA polymerase variant G47A/P657W+C-terminal G (P657W), SEQ ID NO: 60 (Escherichia phage T7, UniProt P00573, G47A/P657W). The assay can be described thus: GAG/e6A/m6A cap analog incorporation in IVT reactions, LC-MS % capped RNA (P657W). As to conditions: 5 mM of each NTP. As to the method:
(§1) In vitro transcription reactions were performed using DNA template, one of three cap analogs (GAG cap, m6A cap, and e6A cap) at varying concentrations, and (1) a G47A+C-terminal G RNA polymerase variant (control polymerase variant; G47A+C-terminal G), (2) a G47A/D506W+C-terminal G RNA polymerase variant (D506W), (3) a G47A/S628W+C-terminal G RNA polymerase variant (S628W), (4) a G47A/D653W+C-terminal G RNA polymerase variant (D653W), and (5) a G47A/P657W+C-terminal G RNA polymerase variant (P657W). IVT reactions using the m6A and e6A cap analogs were incorporated using a DNA template that encodes for a 5′A followed by G. Following the IVT reactions, each experiment was subjected to LC-MS to determine the % capped RNA (i.e., percent of transcribed RNA comprising a cap).
(§2) Conversely, even at 5 mM e6A, the control variant provided ˜40% of total RNA with incorporated e6A.
(§3) Conversely, even at 5 mM m6A, the control variant provided less than 30% of total RNA with incorporated m6A.

Assay [2] addresses T7 RNA polymerase variant G47A/D653W+C-terminal G (D653W), SEQ ID NO: 59 (Escherichia phage T7, UniProt P00573, D653W/G47A). The assay can be described thus: GAG/e6A/m6A/GGAG cap analog incorporation in IVT reactions, LC-MS % capped RNA (D653W). How it is done: as §1, §2, §3
Conversely, even at 7.5 mM GGAG tetranuc, the control variant provided less than 70% of total RNA with incorporated GGAG.

For assay [3], the target named is T7 RNA polymerase variant G47A/D506W+C-terminal G (D506W), SEQ ID NO: 57 (Escherichia phage T7, UniProt P00573, D506W/G47A). The assay can be described thus: GAG/e6A/m6A cap analog incorporation in IVT reactions, LC-MS % capped RNA (D506W). The note with it: 5 mM of each NTP. As to the method: as §1, §2, §3
The target in assay [4] is T7 RNA polymerase variant G47A/S628W+C-terminal G (S628W), SEQ ID NO: 58 (Escherichia phage T7, UniProt P00573, G47A/S628W). The experiment in a line: GAG/e6A/m6A cap analog incorporation in IVT reactions, LC-MS % capped RNA (S628W). As to conditions: 5 mM of each NTP. As to the method: as §1, §2, §3
Where [5] appears, read: EC50 = concentration for 50% cap incorporation, vs G47A+C-terminal G.

Sequence of T7 RNA polymerase variant G47A/D653W+C-terminal G (D653W), SEQ ID NO: 59 (P00573 other isoform, or with tags, fused parts or gaps G47A/D653W): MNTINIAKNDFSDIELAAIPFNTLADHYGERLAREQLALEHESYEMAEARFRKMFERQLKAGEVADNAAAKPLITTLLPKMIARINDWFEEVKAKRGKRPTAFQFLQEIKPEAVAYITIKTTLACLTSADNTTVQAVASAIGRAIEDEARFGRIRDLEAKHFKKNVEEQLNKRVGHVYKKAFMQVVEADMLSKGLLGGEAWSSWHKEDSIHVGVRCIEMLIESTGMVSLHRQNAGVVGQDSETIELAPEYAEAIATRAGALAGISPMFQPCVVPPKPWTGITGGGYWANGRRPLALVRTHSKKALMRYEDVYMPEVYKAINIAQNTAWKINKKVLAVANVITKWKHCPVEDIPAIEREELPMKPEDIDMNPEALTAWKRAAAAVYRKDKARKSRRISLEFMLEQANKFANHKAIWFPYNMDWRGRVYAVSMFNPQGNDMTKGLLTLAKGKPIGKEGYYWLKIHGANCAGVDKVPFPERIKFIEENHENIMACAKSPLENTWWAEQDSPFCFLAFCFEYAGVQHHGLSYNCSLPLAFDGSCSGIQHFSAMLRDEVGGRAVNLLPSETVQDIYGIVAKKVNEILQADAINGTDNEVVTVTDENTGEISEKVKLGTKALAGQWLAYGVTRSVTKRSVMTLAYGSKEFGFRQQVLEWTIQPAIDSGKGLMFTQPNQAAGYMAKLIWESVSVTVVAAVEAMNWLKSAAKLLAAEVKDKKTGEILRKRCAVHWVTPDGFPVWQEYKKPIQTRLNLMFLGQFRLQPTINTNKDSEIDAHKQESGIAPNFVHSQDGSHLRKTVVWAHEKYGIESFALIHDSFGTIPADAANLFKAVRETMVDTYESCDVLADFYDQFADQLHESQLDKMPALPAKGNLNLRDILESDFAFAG
Sequence of T7 RNA polymerase variant G47A/P657W+C-terminal G (P657W), SEQ ID NO: 60 (P00573 other isoform, or with tags, fused parts or gaps G47A/P657W): as the sequence (P00573 other isoform, or with tags, fused parts or gaps G47A/D653W) above, with W653D, P657W counted along it
Sequence of T7 RNA polymerase variant G47A/S628W+C-terminal G (S628W), SEQ ID NO: 58 (P00573 other isoform, or with tags, fused parts or gaps G47A/S628W): as the sequence (P00573 other isoform, or with tags, fused parts or gaps G47A/D653W) above, with S628W, W653D counted along it
Sequence of T7 RNA polymerase variant G47A/D506W+C-terminal G (D506W), SEQ ID NO: 57 (P00573 other isoform, or with tags, fused parts or gaps G47A/D506W): as the sequence (P00573 other isoform, or with tags, fused parts or gaps G47A/D653W) above, with D506W, W653D counted along it

Take `CO[C@@H]1[C@H](OP(=O)(O)OC[C@H]2O[C@@H](n3cnc4c(=O)[nH]c(N)nc43)[C@H](O)[C@@H]2O)[C@@H](COP(=O)(O)OP(=O)(O)OP(=O)([O-])OC[C@H]2O[C@@H](n3c[n+](C)c4c(=O)[nH]c(N)nc43)[C@H](O)[C@@H]2O)O[C@H]1n1cnc2c(N)ncnc21` [GAG cap]: the “fold improvement (reduction) in EC50 for GAG cap incorporation, relative to the control variant” value in assay [1] (setting [5]) was determined as 2.27 fold; in assay [2] (7.5 mM of each NTP, FIG. 4E, vs G47A+C-terminal G) it was 12.3 fold; in assay [3] (setting [5]), 1.28 fold; in assay [4] (setting [5]), 1.45 fold. Besides, in assay [2] (5 mM of each NTP, vs G47A+C-terminal G), the “EC50 for GAG cap incorporation, relative to the control variant (in words)” value is “significant improvement”.

With `CO[C@@H]1[C@H](OP(=O)(O)OC[C@H]2O[C@@H](n3cnc4c(N)ncnc43)[C@H](O)[C@@H]2OP(=O)(O)OC[C@H]2O[C@@H](n3cnc4c(=O)[nH]c(N)nc43)[C@H](O)[C@@H]2O)[C@@H](COP(=O)(O)OP(=O)(O)OP(=O)([O-])OC[C@H]2O[C@@H](n3c[n+](C)c4c(=O)[nH]c(N)nc43)[C@H](O)[C@@H]2O)O[C@H]1n1cnc2c(=O)[nH]c(N)nc21` [GGAG tetranuc], the “effective concentration of GGAG tetranuc cap analog for cap incorporation, relative to control variant (in words)” value in assay [2] (7.5 mM of each NTP, FIG. 7) is “lesser effective concentrations”.

In the case of `CCNc1ncnc2c1ncn2[C@@H]1O[C@H](COP(=O)(O)OP(=O)(O)OP(=O)([O-])OC[C@H]2O[C@@H](n3c[n+](C)c4c(=O)[nH]c(N)nc43)[C@H](O)[C@@H]2O)[C@@H](OP(=O)(O)OC[C@H]2O[C@@H](n3cnc4c(=O)[nH]c(N)nc43)[C@H](O)[C@@H]2O)[C@H]1OC` [e6A cap, m^7Gpppe^6A2′OmepG], the “effective concentration of e6A cap analog for cap incorporation, relative to control variant (in words)” value is on record as “lesser effective concentrations” in assay [1] (FIGS. 5A-5D); “lesser effective concentrations” in assay [2] (5 mM of each NTP, FIGS. 5A-5D); “lesser effective concentrations” in assay [3] (FIGS. 5A-5D); “lesser effective concentrations” in assay [4] (FIGS. 5A-5D).

As to `CNc1ncnc2c1ncn2[C@@H]1O[C@H](COP(=O)(O)OP(=O)(O)OP(=O)([O-])OC[C@H]2O[C@@H](n3c[n+](C)c4c(=O)[nH]c(N)nc43)[C@H](O)[C@@H]2O)[C@@H](OP(=O)(O)OC[C@H]2O[C@@H](n3cnc4c(=O)[nH]c(N)nc43)[C@H](O)[C@@H]2O)[C@H]1OC` [m6A cap, m^7Gpppm^6A2′OmepG], the “effective concentration of m6A cap analog for cap incorporation, relative to control variant (in words)” value in assay [1] (FIGS. 6A-6D) was “lesser effective concentrations”; in assay [2] (5 mM of each NTP, FIGS. 6A-6D) it was “lesser effective concentrations”; in assay [3] (FIGS. 6A-6D), “lesser effective concentrations”; in assay [4] (FIGS. 6A-6D), “lesser effective concentrations”.
